Source: patent US8080523B2 (The Regents of the University of California, priority 2004, dated 2011)
Positions of bridges follow the written chain, without caps; N, C: chain ends. Residues, ends and D or L forms follow the SMILES beside them.

Columns and labels:
Assay type in all cases: cell-based
Kv1.1 = target: T1, Kv1.1 (Mus musculus, UniProt P16388); experiment: Patch-clamp block of Kv1.1 channels stably expressed in L929 cells
T1 construct: expressed in transfected cells
Method: (§1) Kds were determined from the dose-response curves shown using Microcal Origin software.

Kv1.5 = Kv1.5 (Homo sapiens, UniProt P22460); experiment: Ion channel specificity panel: Kv1.5
Sequence of Kv1.5 (P22460 whole entry): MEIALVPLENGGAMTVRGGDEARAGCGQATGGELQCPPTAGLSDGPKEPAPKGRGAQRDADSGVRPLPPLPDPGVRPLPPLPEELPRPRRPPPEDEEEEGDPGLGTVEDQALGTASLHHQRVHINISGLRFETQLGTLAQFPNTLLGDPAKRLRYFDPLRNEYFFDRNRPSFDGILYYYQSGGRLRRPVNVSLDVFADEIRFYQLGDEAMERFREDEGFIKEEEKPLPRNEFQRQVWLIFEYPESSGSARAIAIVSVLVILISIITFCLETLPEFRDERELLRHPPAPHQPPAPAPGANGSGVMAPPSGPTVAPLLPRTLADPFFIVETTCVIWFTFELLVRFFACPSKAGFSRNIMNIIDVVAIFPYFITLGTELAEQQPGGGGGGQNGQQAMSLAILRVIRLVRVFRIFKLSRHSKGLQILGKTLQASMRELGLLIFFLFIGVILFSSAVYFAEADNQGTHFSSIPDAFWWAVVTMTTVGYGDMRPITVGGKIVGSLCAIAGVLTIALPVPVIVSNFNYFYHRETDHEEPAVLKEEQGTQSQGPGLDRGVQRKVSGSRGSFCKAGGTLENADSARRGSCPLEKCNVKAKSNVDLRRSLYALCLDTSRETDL
Text: (§2) Margatoxin, a peptide from scorpion venom that has been touted as a specific Kv1.3 inhibitor (Koo et al., 1997; Lin et al., 1993; Middleton et al., 2003) was also not specific.

Kv1.2 [1] = experiment: Ion channel specificity panel: Kv1.2
Text: as §2

Kv1.3 = target: T2, Kv1.3 (Mus musculus, UniProt P16390); experiment: Patch-clamp block of Kv1.3 channels stably expressed in L929 cells; settings: cloned channel, dose-response curves
T2 construct: expressed in transfected cells
T2 sequence (P16390 whole entry): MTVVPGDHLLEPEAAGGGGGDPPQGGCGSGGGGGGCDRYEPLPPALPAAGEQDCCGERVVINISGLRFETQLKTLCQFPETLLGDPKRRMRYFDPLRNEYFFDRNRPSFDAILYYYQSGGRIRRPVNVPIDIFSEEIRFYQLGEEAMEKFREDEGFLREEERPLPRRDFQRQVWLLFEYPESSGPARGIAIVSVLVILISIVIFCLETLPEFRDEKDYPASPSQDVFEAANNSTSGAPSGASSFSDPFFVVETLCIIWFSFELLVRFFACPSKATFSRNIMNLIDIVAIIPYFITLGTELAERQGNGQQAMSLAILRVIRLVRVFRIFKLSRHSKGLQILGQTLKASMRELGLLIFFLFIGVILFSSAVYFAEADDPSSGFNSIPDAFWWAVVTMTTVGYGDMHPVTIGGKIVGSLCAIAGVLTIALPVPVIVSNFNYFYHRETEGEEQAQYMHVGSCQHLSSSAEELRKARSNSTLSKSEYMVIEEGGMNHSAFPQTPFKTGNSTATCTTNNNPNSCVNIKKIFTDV
Method: as §1

Kv3.2 = experiment: Ion channel specificity panel: Kv3.2
Text: as §2

Kv1.2 [2] = target: Kv1.2 (UniProt P63142); experiment: Ion channel specificity panel: Kv1.2; settings: read-out: Kd on Kv1.2
Text: as §2

Kv1.6 = Kv1.6 (Homo sapiens, UniProt P17658); experiment: Ion channel specificity panel: Kv1.6
Sequence of Kv1.6 (P17658 whole entry): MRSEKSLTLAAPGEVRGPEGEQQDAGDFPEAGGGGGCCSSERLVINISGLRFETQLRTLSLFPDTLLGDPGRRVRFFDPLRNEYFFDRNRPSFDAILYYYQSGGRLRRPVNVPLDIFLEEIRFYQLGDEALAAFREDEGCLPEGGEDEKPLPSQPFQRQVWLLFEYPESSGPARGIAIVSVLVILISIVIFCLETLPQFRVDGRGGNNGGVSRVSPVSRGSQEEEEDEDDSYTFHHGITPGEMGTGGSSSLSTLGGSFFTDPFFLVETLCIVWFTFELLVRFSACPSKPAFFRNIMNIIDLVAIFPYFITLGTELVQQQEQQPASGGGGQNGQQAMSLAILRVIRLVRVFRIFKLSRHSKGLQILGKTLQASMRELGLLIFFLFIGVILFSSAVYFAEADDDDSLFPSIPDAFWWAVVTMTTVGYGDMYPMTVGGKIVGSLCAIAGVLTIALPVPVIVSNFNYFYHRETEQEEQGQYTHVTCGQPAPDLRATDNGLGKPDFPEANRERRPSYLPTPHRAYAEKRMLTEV
Text: as §2

T1 sequence (P16388 whole entry): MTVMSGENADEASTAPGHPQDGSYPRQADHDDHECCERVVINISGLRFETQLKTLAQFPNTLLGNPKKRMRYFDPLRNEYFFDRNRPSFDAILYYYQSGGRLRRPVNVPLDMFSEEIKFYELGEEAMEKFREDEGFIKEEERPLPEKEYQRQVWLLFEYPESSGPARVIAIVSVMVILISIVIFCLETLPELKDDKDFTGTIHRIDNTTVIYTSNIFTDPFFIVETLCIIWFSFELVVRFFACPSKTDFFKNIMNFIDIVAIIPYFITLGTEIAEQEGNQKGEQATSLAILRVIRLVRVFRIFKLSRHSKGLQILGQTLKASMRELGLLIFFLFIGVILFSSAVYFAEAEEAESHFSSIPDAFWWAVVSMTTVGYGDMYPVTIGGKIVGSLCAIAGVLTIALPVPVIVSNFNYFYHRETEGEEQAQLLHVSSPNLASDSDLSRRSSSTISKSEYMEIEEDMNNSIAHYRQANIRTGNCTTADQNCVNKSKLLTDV

Compound | selectivity for Kv1.3 over Kv1.1 (Kv1.1) | selectivity for Kv1.3 over Kv1.5 (Kv1.5) | selectivity for Kv1.3 over Kv1.2 (Kv1.2 [1]) | Kd (Kv1.1) [nM] | Kd (Kv1.3) [nM] | Kd (Kv3.2) [nM] | selectivity for Kv1.3 over Kv3.2 (Kv3.2) [fold] | Kd (Kv1.2 [2]) [nM] | Kd (Kv1.6) [nM] | selectivity for Kv1.3 over Kv1.6 (Kv1.6) [fold]
O=c1cc(-c2ccc(O)c(O)c2)oc2cc(O)cc(O)c12 [Luteolin] | no selectivity | no selectivity | no selectivity |  |  |  |  |  |  | 
CC[C@H](C)[C@H](NC(=O)[C@@H](N)[C@@H](C)O)C(=O)N[C@H](C(=O)N[C@@H](CC(N)=O)C(=O)N[C@H](C(=O)N[C@@H](CCCCN)C(=O)N[C@H]1CSSC[C@@H]2NC(=O)[C@H](CCCCN)NC(=O)[C@H](C)NC(=O)CNC(=O)[C@H](C)NC(=O)[C@H](CO)NC(=O)[C@H](CCC(N)=O)NC(=O)CNC(=O)[C@H](Cc3ccccc3)NC(=O)[C@H](CCC(N)=O)NC(=O)[C@H](C)NC(=O)[C@H](CCCCN)NC(=O)[C@@H]3CSSC[C@@H](C(=O)N[C@@H](Cc4ccc(O)cc4)C(=O)N4CCC[C@H]4C(=O)N[C@@H](Cc4c[nH]cn4)C(=O)O)NC(=O)[C@H](CCCCN)NC(=O)[C@H](CSSC[C@H](NC(=O)[C@H](CCC(N)=O)NC(=O)[C@H](CCCCN)NC(=O)[C@@H]4CCCN4C(=O)[C@H](CO)NC(=O)[C@H]([C@@H](C)O)NC1=O)C(=O)N[C@@H](CC(C)C)C(=O)N1CCC[C@H]1C(=O)N1CCC[C@H]1C(=O)N3)NC(=O)[C@H](CCCCN)NC(=O)CNC(=O)[C@H](CC(N)=O)NC(=O)[C@H](CCSC)NC2=O)C(C)C)[C@@H](C)CC [Margatoxin] (H-TIINVKCTSPKQCLPPCKAQFGQSAGAKCMNGKCKCYPH-OH; disulfide 7-29, 13-34, 17-36; N-terminus and C-terminus assumed) | 9 fold |  | 5 fold | 10 ± 1 | 0.11 ± 0.012 | > 100 | > 1000 | 0.52 ± 0.001 | > 100 | > 1000
